Each structure is given as a SMILES string. In brackets after ≈: the same amount, converted by molar mass.

What all share (assay type): functional
Holding throughout (conditions): read-out: ED50 (the source's name)

For one test, the system named is SK-OV-3. Briefly: Cytotoxicity against human SKOV3 cells by SRB assay. On the technique in general: Sulforhodamine B stains cellular protein and so reports cell mass.
A further test concerns SK-MEL-2. The test can be described thus: Cytotoxicity against human SK-MEL-2 cells by SRB assay.
A further test concerns A549. Briefly: Cytotoxicity against human A549 cells by SRB assay.
In a further test the test system is HCT-15. The test can be described thus: Cytotoxicity against human HCT15 cells by SRB assay.
In the next test the test system is XF498. Briefly: Cytotoxicity against human XF498 cells by SRB assay.

On to `C=C1C(=O)O[C@@H]2[C@@H]1[C@H](OC(=O)/C(C)=C\C)C(=O)[C@@H](C)C[C@H](O)C[C@](C)(O)[C@H]2OC(=O)C(C)CC` (stereo not given in full) [CARDIVIN A], for which the EC50 in the test on SK-OV-3 is 1.47 µg/mL (≈ 3.06 µM); in the test on SK-MEL-2 it was 1.16 µg/mL (≈ 2.41 µM); with A549, 3.17 µg/mL (≈ 6.6 µM); with HCT-15, 1.28 µg/mL (≈ 2.66 µM); with XF498, 1.4 µg/mL (≈ 2.91 µM).

For the compound `C=C1C(=O)O[C@@H]2[C@@H]1[C@H](OC(=O)C(C)CC)C(=O)[C@@H](C)C[C@H](O)C[C@](C)(O)[C@H]2OC(=O)C(C)C` (stereo not given in full) [CARDIVIN B], the EC50 is 2.24 µg/mL (≈ 4.78 µM) with SK-OV-3; 1.45 µg/mL (≈ 3.09 µM) in the test on SK-MEL-2; 3.71 µg/mL (≈ 7.92 µM) in the test with A549; 2.06 µg/mL (≈ 4.4 µM) in the test on HCT-15; 1.69 µg/mL (≈ 3.61 µM) in the test with XF498.

For `C=C1C(=O)O[C@@H]2[C@@H]1[C@H](OC(=O)C(C)C)C(=O)[C@@H](C)C[C@H](O)C[C@](C)(O)[C@H]2OC(=O)/C(C)=C\C` [CARDIVIN C], the EC50 in the test with SK-OV-3 is 1.6 µg/mL (≈ 3.43 µM); with SK-MEL-2, 1.08 µg/mL (≈ 2.31 µM); with A549, 3.12 µg/mL (≈ 6.69 µM); in the test on HCT-15 it was 1.38 µg/mL (≈ 2.96 µM); in the test on XF498, 1.31 µg/mL (≈ 2.81 µM).

Consider `C=C1C(=O)O[C@@H]2[C@@H]1[C@H](OC(=O)C(C)C)C(=O)[C@@H](C)C[C@H](O)C[C@](C)(O)[C@H]2OC(=O)C(C)C` [CARDIVIN D], for which the EC50 in the test on SK-OV-3 is 3.78 µg/mL (≈ 8.32 µM); in the test with SK-MEL-2, 1.88 µg/mL (≈ 4.14 µM); in the test with A549, 8.36 µg/mL (≈ 18.4 µM); in the test on HCT-15, 3 µg/mL (≈ 6.6 µM); with XF498, 3.05 µg/mL (≈ 6.71 µM).

For the compound `COc1cccc2c1C(=O)c1c(O)c3c(c(O)c1C2=O)C[C@@](O)(C(=O)CO)C[C@@H]3O[C@H]1C[C@H](N)[C@H](O)[C@H](C)O1` [DOXORUBICIN], the EC50 in the test with SK-OV-3 is 0.13 µg/mL (≈ 0.239 µM); in the test with SK-MEL-2, 0.11 µg/mL (≈ 0.202 µM); with A549, 0.12 µg/mL (≈ 0.221 µM); in the test with HCT-15, 2.4 µg/mL (≈ 4.42 µM); in the test with XF498 it was 0.23 µg/mL (≈ 0.423 µM).
